Compound: CC(O)(CS(=O)(=O)c1ccc(F)cc1)C(=O)Nc1ccc(C#N)c(C(F)(F)F)c1 [Bicalutamide] + Cc1nc(NC(=O)N2CCC[C@H]2C(N)=O)sc1-c1ccnc(C(C)(C)C(F)(F)F)c1 [Alpelisib] (partner 2 µM)
Experiment: relative viability (nuclei count vs DMSO), 5 days (fraction); higher = more cells survive
Settings: first compound 0.253 µM
Method in brief: (§1)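 Cells from lung cancer lines were seeded into 1536-well plates and, one day later, dosed by pin tool. Treatments were either a single drug or a fixed dose of an anchor drug with five library-drug doses (not always all listed) in √10 steps. After 5 days, nuclei were stained in a one-step fixation (final 0.05% Triton X-100, 1% formaldehyde, 1 ug/ml Hoechst) and counted on 4× images, and relative viability is the treated-to-vehicle nuclei ratio, as the median of duplicate plates.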

Row | Cell Line | relative viability
1 | NCI-H596 | 0.493
2 | NCI-H2228 | 0.805
3 | EMC-BAC-2 | 0.674
4 | NCI-H2087 | 0.843
5 | Calu-6 | 0.908
6 | HCC-366 | 0.255
7 | NCI-H1666 | 0.889
8 | NCI-H647 | 1.33
9 | LK-2 | 0.878
10 | SK-MES-1 | 0.718
11 | COR-L23 | 0.757
12 | COR-L 105 | 0.89
13 | IA-LM | 0.793
14 | HCC-44 | 0.764
15 | A549 | 0.685
16 | NCI-H2023 | 0.59
17 | NCI-H520 | 0.945
18 | SW 1573 | 0.639
19 | NCI-H1299 | 1.13
20 | NCI-H1792 | 0.656
21 | NCI-H1563 | 0.95
22 | SK-LU-1 | 0.962
23 | NCI-H661 | 0.591

Same assay, conditions: first compound 0.8 µM

Row | Cell Line | relative viability
24 | NCI-H838 | 0.984
25 | EBC-1 | 0.828
26 | NCI-H1703 | 0.332
27 | NCI-H2009 | 1.13
28 | NCI-H1993 | 0.708
29 | PC-14 | 0.969
30 | LCLC-103H | 1.1
31 | NCI-H596 | 0.588
32 | NCI-H2228 | 0.908
33 | EMC-BAC-2 | 0.791
34 | NCI-H2087 | 1.16
35 | Calu-6 | 1.04
36 | HCC-366 | 0.465
37 | NCI-H1666 | 1.13
38 | NCI-H647 | 1.47
39 | LK-2 | 1.44
40 | SK-MES-1 | 1.02
41 | COR-L23 | 0.843
42 | COR-L 105 | 1
43 | IA-LM | 0.964
44 | HCC-44 | 0.902
45 | A549 | 0.889
46 | NCI-H2023 | 0.555
47 | NCI-H520 | 1.1
48 | SW 1573 | 0.831
49 | NCI-H1299 | 1.08
50 | NCI-H1792 | 0.794
51 | NCI-H1563 | 0.897
52 | SK-LU-1 | 1.41
53 | NCI-H661 | 0.833

Same assay, conditions: first compound 2.53 µM

Row | Cell Line | relative viability
54 | NCI-H838 | 0.945
55 | EBC-1 | 0.776
56 | NCI-H1703 | 0.262
57 | NCI-H2009 | 1.18
58 | NCI-H1993 | 0.717
59 | PC-14 | 0.869
60 | LCLC-103H | 1.02
61 | NCI-H596 | 0.568
62 | NCI-H2228 | 0.58
63 | EMC-BAC-2 | 0.694
64 | NCI-H2087 | 1.13
65 | Calu-6 | 0.868
66 | HCC-366 | 0.37
67 | NCI-H1666 | 0.942
68 | NCI-H647 | 0.858
69 | LK-2 | 1.16
70 | SK-MES-1 | 0.858
71 | COR-L23 | 0.727
72 | COR-L 105 | 0.83
73 | IA-LM | 0.782
74 | HCC-44 | 0.794
75 | A549 | 0.733
76 | NCI-H2023 | 0.608
77 | NCI-H520 | 0.808
78 | SW 1573 | 0.689
79 | NCI-H1299 | 1.11
80 | NCI-H1792 | 0.665
81 | NCI-H1563 | 0.779
82 | SK-LU-1 | 0.848
83 | NCI-H661 | 0.829

Compound: C(C(=O)C(=O)O)Br [Bromopyruvate] + COc1cc2c(Oc3ccc(NC(=O)C4(C(=O)Nc5ccc(F)cc5)CC4)cc3F)ccnc2cc1OCCCN1CCOCC1 [Foretinib] (partner 0.25 µM)
Experiment: as above
Settings: first compound 1 µM
Method in brief: as §1

Row | Cell Line | relative viability
84 | NCI-H1623 | 0.897
85 | NCI-H838 | 1.03
86 | NCI-H1650 | 1.16
87 | EBC-1 | 0.1
88 | NCI-H1703 | 0.327
89 | NCI-H2009 | 1.22
90 | NCI-H1993 | 0.84
91 | PC-14 | 0.945
92 | LCLC-103H | 0.568
93 | NCI-H596 | 0.86
94 | NCI-H2228 | 0.798
95 | EMC-BAC-2 | 0.964
96 | NCI-H2087 | 1.13
97 | Calu-6 | 0.9
98 | HCC-366 | 0.927
99 | NCI-H1666 | 0.994
100 | NCI-H647 | 1.26

Row | Cell Line | relative viability
101 | LK-2 | 0.865
102 | NCI-H2342 | 1.09
103 | SK-MES-1 | 0.964
104 | COR-L23 | 0.905
105 | COR-L 105 | 0.924
106 | IA-LM | 1.12
107 | ChaGo-K-1 | 0.898
108 | A549 | 0.949
109 | SW 900 | 0.902
110 | NCI-H2023 | 0.716
111 | NCI-H520 | 0.83
112 | SW 1573 | 0.741
113 | NCI-H1299 | 1.16
114 | NCI-H1563 | 0.869
115 | SK-LU-1 | 0.846
116 | NCI-H661 | 1.02

Same assay, conditions: first compound 3.162 µM

Row | Cell Line | relative viability
117 | NCI-H1623 | 0.879
118 | NCI-H838 | 1.08
119 | NCI-H1650 | 1.25
120 | EBC-1 | 0.107
121 | NCI-H1703 | 0.397
122 | NCI-H2009 | 1.25
123 | NCI-H1993 | 0.817
124 | PC-14 | 0.939
125 | LCLC-103H | 0.748
126 | NCI-H596 | 0.946
127 | NCI-H2228 | 0.82
128 | EMC-BAC-2 | 0.979
129 | NCI-H2087 | 1.17
130 | Calu-6 | 0.891
131 | HCC-366 | 0.976

Source: the supplement of paper PMC10307832
